Non-standard residues stand in square brackets, D forms with d. Residues, ends and D or L forms follow the SMILES beside them. Sar = CNCC(=O)O
Assays:
[1] = tested on: prothymocytes; assay: induction in vitro of Thy-1+ T cell differentiation (Komuro and Boyse), acquisition of Thy-1.2 as marker; type: cell-based, nu/nu mice; conditions: for biological activity compared with the pentapeptide prepared in Example I: qualitative statement
Procedure: (§1) To determine the activity and characteristics of the polypeptide of Example I, determinations were carried out on healthy 5-6 week nu/nu mice of both sexes, the mice being bred on a BALB/c background (thymocytes expressing Thy-1.2 surface antigen) and maintained under conventional conditions. For the antisera, anti Thy-1.2 sera were prepared in Thy-1 congenic mice.
(§2) For the induction in vitro of Thy-1^+ T cells or CR^+ B cell differentiation, the induction of thymocyte differentiation from prothymocytes in vitro was performed as described by Komuro and Boyse, (Lancet, 1, 740, 1973), using the acquisition of Thy-1.2 as a marker of T cell differentation. The induction of CR^+ B cell differentiation from CR^- B cell precursors in vitro was performed under similar conditions using as the assay criterion, the capacity of CR^+ B cells to bind sheep erythrocytes coated with subagglutinating quantities of rabbit antibody and nonlytic complement. Spleen cell populations from healthy nu/nu mice fractionated on discontinuous bovine serum albumin gradients were used as the source of both precursor types (Thy-1^- and CR^-) because they have few or no Thy-1^+ cells and low numbers of CR^+ cells.

[2] = tested on: CR^- B cell precursors; assay: induction in vitro of CR+ B cell differentiation from CR- B cell precursors; type: cell-based, nu/nu mice; conditions: same concentrations as for T cell induction
Procedure: as §1, §2

Row | Compound | concentration at which peptide is active ([1]; assay of Example II) [pg/mL] | biological activity compared with the pentapeptide prepared in Example I [1] | induction of differentiation of CR+ B cells [2]
1 | CN(CC(=O)N[C@@H](Cc1ccc(O)cc1)C(N)=O)C(=O)[C@H](CC(=O)O)NC(=O)CN(C)C(=O)[C@@H](N)CCCNC(=N)N [IVB, H--ARG--SAR--ASP--SAR--TYR--NH2] (H-R[Sar]D[Sar]Y-NH2) | 0.1 | same biological activity | 
2 | CN(CC(=O)N[C@@H](Cc1ccc(O)cc1)C(=O)O)C(=O)[C@H](CC(=O)O)NC(=O)[C@H](CCCCN)NC(=O)[C@@H](N)CCCNC(=N)N [Example IVC, H--ARG--LYS--ASP--SAR--TYR--OH] (H-RKD[Sar]Y-OH) |  | same biological activity | 
3 | CC(C)[C@H](NC(=O)[C@H](CC(=O)O)NC(=O)CN(C)C(=O)[C@@H](N)CCCNC(=N)N)C(=O)N[C@@H](Cc1ccc(O)cc1)C(=O)O [Example I, H--ARG--SAR--ASP--VAL--TYR--OH] (H-R[Sar]DVY-OH) |  |  | did not induce
4 | CC(C)[C@H](NC(=O)[C@H](CC(=O)O)NC(=O)[C@@H](C)NC(=O)[C@@H](N)CCCNC(=N)N)C(=O)N[C@@H](Cc1ccc(O)cc1)C(=O)O [III, H--ARG--D--ALA--ASP--VAL--TYR--OH] (H-R[dA]DVY-OH) |  | same biological activity | 
5 | CN(CC(=O)N[C@@H](Cc1ccc(O)cc1)C(=O)O)C(=O)[C@H](CC(=O)O)NC(=O)CN(C)C(=O)[C@@H](N)CCCNC(=N)N [IVA, H--ARG--SAR--ASP--SAR--TYR--OH] (H-R[Sar]D[Sar]Y-OH) |  | same biological activity | 

— patent publication US4397842A, “Peptides having thymopoietin-like activity” (Ortho Pharmaceutical Corporation, priority 1981, dated 1983)
